The results in this text go back to ChEMBL document CHEMBL1201862, “PubChem BioAssay data set” (2004).

Test systems include SF-539; DU-145; SK-MEL-28; T47D; BT-549; UO-31; HCT-116; CAKI-1; PC-3; A498; SN12C; OVCAR-3; ACHN; UACC-257; 786-0; M14; OVCAR-5; NCI-H226; K562; EKVX.
What all share (test): DTP human tumour cell line panel, 48 h

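Tested at 5 concentrations; 48 h exposure; 96-well plates; endpoints linearly interpolated, else capped at highest concentration. At the GI50, growth is halved.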 Activity calls are given as the source filed them. Rule as the data show it: active = GI50 up to about 1.1 µM and inactive = higher. Some results are limits rather than exact numbers.

In general, GI50 refers to the concentration giving 50% growth inhibition. Regarding `O=c1c2c3c(sc2nc2n1N=C(c1ccc(Br)cc1)CS2)CCCC3`, the GI50 in the assay with SF-539, with DU-145, with SK-MEL-28, with T47D, with BT-549 and in the assay with UO-31 was > 100 µM (inactive) throughout. In addition, the GI50 in the assay on HCT-116, in the assay with CAKI-1, with PC-3, with A498, with SN12C and in the assay with OVCAR-3 was > 100 µM (inactive) each time. Also, the GI50 with ACHN, in the assay with UACC-257, with 786-0, in the assay on M14, in the assay with OVCAR-5 and in the assay on NCI-H226 was > 100 µM (inactive) in each case. The GI50 in the assay with K562 and with EKVX was > 100 µM (inactive) in each case.

On to `COC1(CC[C@H](C)COC2OC(CO)C(O)C(O)C2O)O[C@H]2C[C@H]3[C@@H]4CC=C5C[C@@H](OC6OC(CO)C(O)C(OC7OC(CO)C(O)C(O)C7O)C6OC6OC(C)C(O)C(O)C6O)CC[C@]5(C)[C@H]4CC[C@]3(C)[C@H]2[C@@H]1C` (stereo not given in full), for which the GI50 with SF-539 was 2.17 µM (inactive); in the assay on DU-145, 2 µM (inactive); in the assay on SK-MEL-28, 2.31 µM (inactive); in the assay on T47D, 2.61 µM (inactive); in the assay on BT-549 it was 7.6 µM (inactive); in the assay with UO-31, 2.14 µM (inactive). The GI50 in the assay with HCT-116 is 4.5 µM (inactive); with CAKI-1, 5.45 µM (inactive); in the assay on PC-3 it was 4.3 µM (inactive); in the assay with A498, 17.8 µM (inactive); in the assay with SN12C, 5.41 µM (inactive); in the assay on OVCAR-3, 16.7 µM (inactive). For the same compound, the GI50 in the assay on ACHN is 13.3 µM (inactive); in the assay with UACC-257 it was 5.73 µM (inactive); with 786-0 it was 2.32 µM (inactive); with M14 it was 2.84 µM (inactive); with OVCAR-5, 6.07 µM (inactive); in the assay with NCI-H226, 6.49 µM (inactive). Also, the GI50 in the assay with K562 was 4.88 µM (inactive); in the assay on EKVX, 15.9 µM (inactive).

Take `Cc1cc(C(=C2C=CC(=N)C=C2)c2ccc(N)cc2)ccc1N` [FUCHSIN, BASIC]: the GI50 in the assay on SF-539 was 0.706 µM (active); in the assay with DU-145 it was 5.4 µM (inactive); in the assay with SK-MEL-28 it was 8.2 µM (inactive); in the assay on T47D, 1.01 µM (active); in the assay with BT-549, 0.82 µM (active); with UO-31 it was 17.6 µM (inactive). Also, the GI50 is 3.36 µM (inactive) with HCT-116; 11.9 µM (inactive) in the assay with CAKI-1; 3.48 µM (inactive) in the assay on PC-3; 32.5 µM (inactive) in the assay with A498; 0.299 µM (active) with SN12C; 3.96 µM (inactive) in the assay with OVCAR-3. Further, the GI50 was 8.09 µM (inactive) in the assay with ACHN; 3.65 µM (inactive) in the assay with UACC-257; 1.09 µM (active) in the assay on 786-0; 4.23 µM (inactive) with M14; 11.4 µM (inactive) in the assay on OVCAR-5; 3.19 µM (inactive) with NCI-H226. Further, the GI50 with K562 was 2.79 µM (inactive); in the assay on EKVX it was 6.04 µM (inactive).

`CC(NNC(=O)c1ccncc1)c1ccc(Cl)cc1Cl` (stereo not given): the GI50 with SF-539 was > 100 µM (inactive); in the assay on DU-145, > 100 µM (inactive); in the assay with SK-MEL-28, > 100 µM (inactive); with T47D it was 51.9 µM (inactive); in the assay on BT-549 it was > 100 µM (inactive); in the assay on UO-31, 38.9 µM (inactive). Besides, the GI50 with HCT-116 was > 100 µM (inactive); in the assay on CAKI-1 it was > 100 µM (inactive); in the assay with PC-3, 59.8 µM (inactive); with A498 it was > 100 µM (inactive); in the assay on SN12C it was > 100 µM (inactive); with OVCAR-3, > 100 µM (inactive). Besides, the GI50 in the assay with ACHN, in the assay with UACC-257, with 786-0, in the assay with M14, in the assay with OVCAR-5 and in the assay with NCI-H226 was > 100 µM (inactive) throughout. The GI50 with K562 and with EKVX was > 100 µM (inactive) in each case.

Take `O=C1Nc2ccccc2/C1=N/NS(=O)(=O)c1ccc(C(=O)O)cc1`: the GI50 in the assay with SF-539, in the assay on DU-145, in the assay with SK-MEL-28, in the assay on T47D, in the assay on BT-549 and with UO-31 was > 100 µM (inactive) in each case. Besides, the GI50 in the assay with HCT-116, in the assay with CAKI-1, in the assay with PC-3, in the assay on A498, in the assay with SN12C and with OVCAR-3 was > 100 µM (inactive) in each case. Also, the GI50 with ACHN, in the assay on UACC-257, in the assay on 786-0, with M14, in the assay with OVCAR-5 and with NCI-H226 was > 100 µM (inactive) throughout. Moreover, the values for the GI50 in the assay with K562 and in the assay with EKVX were > 100 µM (inactive) and 74.5 µM (inactive), respectively.

Regarding `Cc1ccc(S(=O)(=O)N/N=C2\CC3CC4CCC2C4C3)cc1` (stereo not given), the GI50 with SF-539, with DU-145, with SK-MEL-28, in the assay with T47D, in the assay with BT-549 and in the assay with UO-31 was > 100 µM (inactive) each time. The GI50 in the assay on HCT-116, with CAKI-1, in the assay on PC-3, with A498, with SN12C and in the assay with OVCAR-3 was > 100 µM (inactive) each time. Moreover, the GI50 with ACHN, in the assay with UACC-257, in the assay on 786-0, with M14, in the assay with OVCAR-5 and with NCI-H226 was > 100 µM (inactive) in each case. Moreover, the GI50 with K562 and in the assay on EKVX was > 100 µM (inactive) each time.

Regarding `COc1cc(/C=N/NC(=O)c2c(Cl)c(Cl)c(Cl)c(Cl)c2-c2nc3ccccc3[nH]2)ccc1O`, the GI50 in the assay on SF-539 was 26.7 µM (inactive); in the assay on DU-145, 19.9 µM (inactive); in the assay with SK-MEL-28 it was 33.6 µM (inactive); with T47D it was 0.56 µM (active); in the assay with BT-549, 21.1 µM (inactive); with UO-31, 22.4 µM (inactive). For the same compound, the GI50 was 16.7 µM (inactive) in the assay on HCT-116; 25.3 µM (inactive) in the assay with CAKI-1; 29.4 µM (inactive) in the assay on PC-3; 27.5 µM (inactive) with A498; 24.2 µM (inactive) with SN12C; 27.3 µM (inactive) in the assay on OVCAR-3. Moreover, the GI50 is 21.4 µM (inactive) in the assay with ACHN; 29.3 µM (inactive) with UACC-257; 28 µM (inactive) in the assay with 786-0; 24.7 µM (inactive) in the assay on M14; 27.9 µM (inactive) in the assay with OVCAR-5; 21.3 µM (inactive) in the assay on NCI-H226. Also, the values for the GI50 in the assay with K562 and in the assay with EKVX were 20.4 µM (inactive) and 19.2 µM (inactive), respectively.

As to `FC(F)(F)C1(C(F)(F)F)O[Si]2(OC(C(F)(F)F)(C(F)(F)F)c3ccccc32)c2ccccc21`, the GI50 in the assay on SF-539 is 10.2 µM (inactive); with DU-145, 15.4 µM (inactive); in the assay on SK-MEL-28, 12 µM (inactive); in the assay with T47D, 9.95 µM (inactive); in the assay on BT-549, 14.5 µM (inactive); in the assay on UO-31, 9.12 µM (inactive). The GI50 is 5.45 µM (inactive) in the assay on HCT-116; 19.1 µM (inactive) in the assay with CAKI-1; 6.27 µM (inactive) in the assay with PC-3; 13.7 µM (inactive) in the assay on A498; 9.02 µM (inactive) in the assay with SN12C; 16.5 µM (inactive) with OVCAR-3. The GI50 is 12 µM (inactive) with ACHN; 18 µM (inactive) in the assay on UACC-257; 12.7 µM (inactive) in the assay on 786-0; 13.2 µM (inactive) in the assay with M14; 14.5 µM (inactive) with OVCAR-5; 4.53 µM (inactive) in the assay with NCI-H226. The GI50 was 10.3 µM (inactive) in the assay with K562 and 15 µM (inactive) in the assay on EKVX.

For `O=C1CCSC(=S)N1c1ccc(Br)c(Cl)c1`, the GI50 is 33 µM (inactive) in the assay with SF-539; 43.8 µM (inactive) in the assay on DU-145; 17.7 µM (inactive) in the assay on SK-MEL-28; 14.9 µM (inactive) in the assay with T47D; 21.1 µM (inactive) in the assay on BT-549; 30.2 µM (inactive) in the assay with UO-31. For the same compound, the GI50 in the assay with HCT-116 is 36.5 µM (inactive); in the assay with CAKI-1, 29.6 µM (inactive); in the assay on PC-3 it was 34.5 µM (inactive); with A498, 22.2 µM (inactive); with SN12C, 41.2 µM (inactive); in the assay on OVCAR-3 it was 37.6 µM (inactive). The GI50 in the assay on ACHN is 21.6 µM (inactive); in the assay with UACC-257 it was 19.9 µM (inactive); with 786-0, 24.4 µM (inactive); with M14, 58.1 µM (inactive); with OVCAR-5, 43.9 µM (inactive); with NCI-H226 it was 27.3 µM (inactive). For the same compound, the GI50 in the assay on K562 was 32.9 µM (inactive); in the assay with EKVX, 44.8 µM (inactive).

Consider `Nc1nc(N)c2nn(-c3ccc(C(=O)O)cc3)nc2n1`, for which the GI50 in the assay with SF-539, in the assay with DU-145, in the assay on SK-MEL-28, with T47D, in the assay with BT-549 and with UO-31 was > 100 µM (inactive) throughout. Besides, the GI50 in the assay with HCT-116, with CAKI-1, with PC-3, in the assay with A498, with SN12C and in the assay with OVCAR-3 was > 100 µM (inactive) each time. Besides, the GI50 in the assay with ACHN, with UACC-257, with 786-0, in the assay on M14, in the assay on OVCAR-5 and in the assay on NCI-H226 was > 100 µM (inactive) throughout. Besides, the GI50 in the assay with K562 and in the assay with EKVX was > 100 µM (inactive) throughout.
